Assay results as given in ChEMBL document CHEMBL1671721, “Chemical validation of phosphodiesterase C as a chemotherapeutic target in Trypanosoma cruzi, the etiological agent of Chagas' disease” (Antimicrob Agents Chemother, 2010).
Calls of active or inactive are those of the source. No cut-off for these calls is given here.

Assays:
[1] = molecular target: T1, Cyclic nucleotide specific phosphodiesterase (Trypanosoma cruzi, UniProt Q53I59); test: Inhibition of Trypanosoma cruzi Y PDEC after 30 mins
T1 sequence (Q53I59 whole entry): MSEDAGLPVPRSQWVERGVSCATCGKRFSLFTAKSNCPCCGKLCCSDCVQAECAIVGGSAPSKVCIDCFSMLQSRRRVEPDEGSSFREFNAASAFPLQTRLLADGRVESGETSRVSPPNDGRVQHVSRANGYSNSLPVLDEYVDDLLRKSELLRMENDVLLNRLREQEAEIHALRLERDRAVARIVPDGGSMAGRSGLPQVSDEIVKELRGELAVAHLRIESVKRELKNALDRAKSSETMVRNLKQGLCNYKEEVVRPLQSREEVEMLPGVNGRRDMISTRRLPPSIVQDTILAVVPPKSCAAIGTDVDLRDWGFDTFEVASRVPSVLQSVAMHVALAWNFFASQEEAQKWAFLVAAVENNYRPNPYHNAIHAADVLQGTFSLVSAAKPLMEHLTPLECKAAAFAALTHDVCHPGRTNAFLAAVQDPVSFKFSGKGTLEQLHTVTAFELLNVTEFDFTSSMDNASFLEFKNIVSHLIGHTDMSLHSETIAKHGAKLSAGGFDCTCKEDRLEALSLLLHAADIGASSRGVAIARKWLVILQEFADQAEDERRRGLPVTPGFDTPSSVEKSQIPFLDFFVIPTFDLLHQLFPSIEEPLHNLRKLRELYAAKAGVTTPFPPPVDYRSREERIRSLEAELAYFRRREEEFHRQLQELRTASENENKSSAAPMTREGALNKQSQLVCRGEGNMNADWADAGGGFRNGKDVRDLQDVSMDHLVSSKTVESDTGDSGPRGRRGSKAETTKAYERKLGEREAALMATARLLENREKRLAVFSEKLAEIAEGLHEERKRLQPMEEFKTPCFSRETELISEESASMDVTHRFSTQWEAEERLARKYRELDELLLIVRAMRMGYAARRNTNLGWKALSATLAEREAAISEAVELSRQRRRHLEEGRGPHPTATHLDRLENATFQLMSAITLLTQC

[2] = Cytotoxicity against rat L6E9 myoblasts at 1 to 25 uM
[3] = test system: Trypanosoma cruzi; test: Antimicrobial activity against Trypanosoma cruzi Y infected in rat L6E9 myoblasts assessed as inhibition of [5,6-3H]uracil incorporation after 3 days postinfection by scintillation counter; type: functional, organism-based
[4] = molecular target: Phosphodiesterase 4 (Homo sapiens, UniProt P27815+Q08499+Q07343+Q08493); test: Inhibition of human PDE4 after 30 mins; type: protein assay
[5] = Cytotoxicity against rat L6E9 myoblasts at >25 uM
[6] = molecular target: T2, Cyclic nucleotide specific phosphodiesterase (Trypanosoma cruzi) (UniProt Q53I59); test: Inhibition of Trypanosoma cruzi Y PDEC assessed as cAMP accumulation at 4.5 to 45 uM after 1 to 5 mins by luminescence spectrophotometry
T2 sequence (whole entry): T1 sequence (Q53I59 whole entry)

[7] = molecular target: T2, Cyclic nucleotide specific phosphodiesterase (Trypanosoma cruzi); test: Inhibition of Trypanosoma cruzi Y PDEC assessed as cAMP accumulation at 43 uM after 1 to 5 mins by luminescence spectrophotometry
[8] = molecular target: T2, Cyclic nucleotide specific phosphodiesterase (Trypanosoma cruzi); test: Inhibition of Trypanosoma cruzi Y PDEC assessed as cAMP accumulation at 26 uM after 1 to 5 mins by luminescence spectrophotometry
[9] = molecular target: T2, Cyclic nucleotide specific phosphodiesterase (Trypanosoma cruzi); test: Inhibition of Trypanosoma cruzi Y PDEC assessed as cAMP accumulation at 90 uM after 1 to 5 mins by luminescence spectrophotometry
[10] = Cytotoxicity against rat L6E9 myoblasts upto 1 uM
[11] = Cytotoxicity against rat L6E9 myoblasts at >10 uM

Row | Structure (SMILES) | IC50 [1] | IC50 [4] | Activity [2] | IC50 [3] | further results
1 | O=C(CC1CCCCC1)c1ccc(OC(F)F)c(OC2CCOC2)c1 (stereo not drawn) | 2.5 µM | 0.667 µM | Non-toxic | 4.4 µM | –
2 | O=C(CCC1CCCCC1)c1ccc(OC(F)F)c(OC2CCOC2)c1 (stereo not drawn) | 5.3 µM | 1.1 µM | Non-toxic | 5.8 µM | –
3 | COc1ccc(C(=O)CC2CCCCC2)cc1OC1CCOC1 (stereo not drawn) | 4.9 µM | 2.6 µM | Non-toxic | 1.7 µM | –
4 | O=C(Nc1csc2ccccc12)NC1Cc2ccccc2C1 | > 10 µM | – | Non-toxic | – | Activity [5]: Toxic
5 | COc1ccc(C(=O)CCc2ccccc2)cc1OC1CCOC1 (stereo not drawn) | > 10 µM | 2.3 µM | Non-toxic | 5.6 µM | –
6 | CCCCC(=O)c1ccc(OC2CCOC2)c(OC)c1 (stereo not drawn) | 5.1 µM | 100 µM | Non-toxic | 1.8 µM | inhibition [6]: Active; inhibition [7]: Active; inhibition [8]: Active; inhibition [9]: Active
7 | O=C(Nc1ccc(S(=O)(=O)N2CCCCC2)cc1)NC1CCCC1 | > 10 µM | – | Non-toxic | – | Activity [10]: Toxic
8 | CCOC(=O)c1csc(COc2ccc(C3SCCS3)cc2)n1 | > 10 µM | – | Non-toxic | – | Activity [5]: Toxic
9 | CCCC(=O)c1ccc(OC(F)F)c(Oc2ccccn2)c1 | 3.5 µM | 40 µM | Non-toxic | 10.3 µM | –
10 | O=S(=O)(Cc1noc(-c2ccno2)n1)Cc1ccco1 | 4.5 µM | – | Non-toxic | – | Activity [10]: Toxic
11 | O=C(CCc1ccccc1)c1ccc(OC(F)F)c(OC(F)F)c1 | 2.2 µM | 0.082 µM | Non-toxic | 2.3 µM | –
12 | COC(OC)c1ccc(C#N)c(SCC(=O)c2ccc(Cl)cc2)n1 | > 10 µM | – | Non-toxic | > 10 µM | –
13 | CC(C)(C)c1cc2ncnc(NNC(=O)c3cccs3)c2s1 [GK03671] | 6.3 µM | – | Non-toxic | 4.8 µM | –
14 | CCOC(=O)c1nc(C)nc(Sc2nnc(-c3ccccc3)[nH]2)c1C | 4.6 µM | – | Non-toxic | 6.4 µM | –
15 | CCCCC(=O)c1ccc(OC2CCOCC2)c(OC)c1 | 3.5 µM | 71 µM | Non-toxic | 5.2 µM | inhibition [6]: Active; inhibition [7]: Active; inhibition [8]: Active; inhibition [9]: Active
16 | CCCC(O)c1ccc(OC)c(OC2CCOCC2)c1 (stereo not drawn) | > 10 µM | 100 µM | Non-toxic | 10 µM | –

Row | Structure (SMILES) | IC50 [1] | IC50 [4] | Activity [2] | IC50 [3] | further results
17 | CC(C)CC(=O)c1ccc(OC(F)F)c(OC2CCCC2)c1 | 3.2 µM | 0.022 µM | Non-toxic | 3.6 µM | –
18 | CCCC(=O)c1ccc(OC(F)F)c(OC2CCOCC2)c1 | 4.8 µM | 0.35 µM | Non-toxic | 1.6 µM | inhibition [6]: Active; inhibition [7]: Active; inhibition [8]: Active; inhibition [9]: Active
19 | C=CCn1c(=S)sc2c(Sc3nnc(-c4ccco4)o3)ncnc21 | 7 µM | – | Non-toxic | 5.4 µM | –
20 | O=S(=O)(Cc1noc(-c2cccs2)n1)c1ccc(F)cc1 | > 10 µM | – | Non-toxic | > 10 µM | –
21 | CCCCC(=O)c1ccc(OC)c(OC2CCOCC2)c1 | > 10 µM | 0.72 µM | Non-toxic | 2.1 µM | –
22 | COc1ccc(C=O)cc1OC1CCOC1 (stereo not drawn) | > 10 µM | – | Non-toxic | 122 µM | –
23 | O=C(COc1ncnc2cc(Cl)ccc12)Nc1ccccc1Cl | > 10 µM | – | Non-toxic | > 10 µM | –
24 | O=S(=O)(Cc1noc(-c2ccc(Cl)cc2)n1)c1ccccn1 | 2.4 µM | – | Non-toxic | – | Activity [10]: Toxic
25 | O=C(CC1CCCCC1)c1ccc(OC(F)F)c(OC(F)F)c1 | 5.4 µM | 5.2 µM | Non-toxic | 5.7 µM | –
26 | O=C(Cn1nnc(N2CCCC2)n1)N/N=C/c1ccncc1 | > 10 µM | – | Non-toxic | – | Activity [11]: Toxic
27 | CCCC(O)(C(=O)c1ccc(OC(F)F)c(Oc2ccccn2)c1)c1cnc2ccccc2c1 (stereo not drawn) | 3.9 µM | 6 µM | Non-toxic | 3.8 µM | –
28 | NNC(=O)c1csc(COc2ccc(C3SCCS3)cc2)n1 | > 10 µM | – | Non-toxic | > 10 µM | –
29 | Fc1ccccc1Nc1ncnc2c1nnn2Cc1ccccc1 | > 10 µM | – | Non-toxic | > 10 µM | –
30 | O=C(NCc1csc(-c2cccs2)n1)C1=Cc2ccccc2OC1 [SCR 01311] | 10 µM | – | Non-toxic | 25 µM | –
31 | CCCC(=O)c1ccc(OC2CCOCC2)c(OC)c1 | 4 µM | 60 µM | Non-toxic | 4 µM | –
32 | O=C1c2ccccc2S(=O)(=O)N1Cc1nc2ccccc2s1 | 5.5 µM | – | Non-toxic | 3.3 µM | –

Further lines, with some results ahead:

Row | IC50 [1] | IC50 [4] | Structure (SMILES) | Activity [2] | IC50 [3] | further results
33 | 3.1 µM | 93 µM | CCCCC(=O)c1ccc(OC2CCN(C(=O)OC(C)(C)C)CC2)c(OC)c1 | Non-toxic | 3.8 µM | –
34 | 3.8 µM | – | O=S(=O)(Cc1ccco1)Cc1nc(-c2ccccc2)cs1 | Non-toxic | 25 µM | –
35 | > 10 µM | – | O=C(CN1CCc2ccccc21)Nc1nnc(-c2cccs2)s1 | Non-toxic | > 10 µM | –
36 | 3.2 µM | 0.626 µM | O=C(CCCc1ccccc1)c1ccc(OC(F)F)c(OC2CCOC2)c1 (stereo not drawn) | Non-toxic | 3.1 µM | –
37 | > 10 µM | – | O=Cc1ccc(OC(F)F)c(O)c1 | Non-toxic | 11 µM | –
38 | 3.6 µM | – | CCOC(=O)Cc1csc(NC(=O)Nc2ccc(Cl)c(Cl)c2)n1 | Non-toxic | – | Activity [10]: Toxic
39 | 2.5 µM | 44 µM | O=C(CCCc1ccccc1)c1ccc(OC(F)F)c(OC(F)F)c1 | Non-toxic | 7.7 µM | –
40 | > 10 µM | 1.9 µM | COc1ccc(C(=O)CCC2CCCCC2)cc1OC1CCOC1 (stereo not drawn) | Non-toxic | 6.1 µM | –
41 | 4.3 µM | – | CSc1noc(-c2ccc(S(=O)(=O)NCc3ccccc3)s2)c1C#N | Non-toxic | – | Activity [5]: Toxic
42 | > 10 µM | – | O=C(SCc1ccco1)c1csc(C2COc3ccccc3O2)n1 (stereo not drawn) | Non-toxic | 25 µM | –
43 | 2.5 µM | 0.18 µM | O=C(CCc1ccccc1)c1ccc(OC(F)F)c(OC2CCOC2)c1 (stereo not drawn) | Non-toxic | 3.1 µM | –
44 | 10 µM | – | O=C1CC(Sc2ccc(Cl)cc2)C(=O)N1Cc1ccncc1 (stereo not drawn) | Non-toxic | > 10 µM | –
45 | 3.3 µM | 6 µM | CCCC(c1ccc(Oc2ccccn2)c(OC)c1)c1cnc2ccccc2c1 (stereo not drawn) | Non-toxic | 1.9 µM | –
46 | > 10 µM | – | O=S(=O)(Cc1noc(CSc2ccc(Cl)cc2)n1)c1ccccn1 | Non-toxic | – | Activity [11]: Toxic
47 | 5.6 µM | 24 µM | CCCC(=O)c1ccc(OC2CCOC2)c(OC)c1 (stereo not drawn) | Non-toxic | 3.7 µM | –
48 | > 10 µM | 100 µM | CCCC(O)c1ccc(OC)c(OC2CCOC2)c1 (stereo not drawn) | Non-toxic | 471 µM | –
49 | > 10 µM | 0.43 µM | CCCC(=O)c1ccc(OC)c(OC2CCOC2)c1 (stereo not drawn) | Non-toxic | 68 µM | –
